Measured values taken from US4458077A, “Heterocyclic anti-ulcer agents” (American Home Products Corporation, priority 1982, dated 1984).
Read-outs that look alike come from different tables or passages of the source. Blank lines part the entries; values can stand above or below the compound they belong to.

Tests used:
[1] = background, cited from earlier work
[2] = biological target: H2 histamine receptors (Cavia porcellus, UniProt P47747); experiment: guinea pig heart atrium test: inhibition of histamine-induced positive chronotropic response (H2 antagonist activity)
Chain of H2 histamine receptors (P47747 whole entry): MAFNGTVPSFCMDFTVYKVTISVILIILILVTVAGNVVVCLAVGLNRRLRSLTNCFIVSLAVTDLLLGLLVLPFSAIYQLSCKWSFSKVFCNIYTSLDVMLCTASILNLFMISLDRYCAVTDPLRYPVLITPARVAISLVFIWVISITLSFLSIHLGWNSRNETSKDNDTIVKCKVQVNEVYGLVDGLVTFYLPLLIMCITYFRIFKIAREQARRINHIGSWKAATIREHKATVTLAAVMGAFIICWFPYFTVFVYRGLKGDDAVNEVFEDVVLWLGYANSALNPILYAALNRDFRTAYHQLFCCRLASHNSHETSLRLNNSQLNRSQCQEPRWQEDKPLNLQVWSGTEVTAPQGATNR
Description: (§1) The results for some of the compounds of the invention in these procedures is presented at the end of the following examples, which will serve to illustrate the present invention.
The guniea pig heart atrium test is carried out as follows:
A guinea pig right atrium is suspended at 1 g. tension (isometric) in a thermostatically controlled (32° C.) tissue bath (10 ml) containing oxygenated (95% O2; 5% CO2) Krebs-Haenseleit buffer (pH 7.4). The tissue is allowed to stabilize over 1 hour. Individual contractions are recorded with a force-displacement transducer through a strain gauge coupler. A control dose-response curve to histamine in the above described tissue bath is obtained after which the tissue is washed 3 times and allowed to re-equilibrate to basal rate. The test compound is added to the tissue bath at the desired final concentration. Thirty minutes after addition of the compound, a fresh histamine dose response curve is again obtained. Then the response to histamine in the presence of antagonist is compared to the histamine control response. This procedure is repeated, using fresh tissues, for each concentration of antagonist tested. The result is expressed as the apparent dissociation constant (pA2) of the H2 antagonist as determined by standard procedures. Cimetidine is used as the standard for this test.

[3] = tested on: gastric acid secretion; experiment: gastric secretion in the pylorus-ligated rat (modified Shay procedure); type: in vivo; details: 32 mg/kg, interduodenally (i.d.), pylorus-ligated male Charles River rats, 4 hours after ligation
Description: as §1
The procedure for testing gastric secretion in the rat, a modification of the procedure of Shay et al., Gastroenterology, 26, 906-13 (1954) is carried out as follows:
Male Charles River rats weighing 200-300 grams are deprived of food but not water for 24 hours prior to use. Water is, however, withheld during the experiment. The rats are weighed, anesthetized, and the pylorus ligated according to the method of Shay et al. Treatment or vehicle control is then administered interduodenally (i.d.). Rats are housed 2/cage and sacrificed with CO2 four hours after ligation. The stomachs are removed, rinsed, and contents emptied into a graduated centrifuge tube. The tubes are centrifuged for 20 minutes at 2,000 RPM and the volume of gastric juice recorded. Any samples obviously contamined by feces, food or hemolysis are eliminated. An aliquot of each is frozen for later analysis of Na^+, K^+ and Cl^- concentration. The pH is measured and 1 ml. of gastric juice is titrated with 0.1N NaOH to a pH of 7.0-7.4. Titrable acid output is calculated in microequivalents and the percent inhibition of acid output is calculated as follows: [formula]

[4] = apparent dissociation constant (pA2) vs histamine, guinea pig right atrium, 32° C, pH 7.4, 30 min after compound, three experiments, read-out: pA2 Value (converted)

SMILES: CN/C(=N/CCSCc1nc[nH]c1C)NC#N [cimetidine]
confusional states (limitation) ([1]; elderly patients): a tendency to cause confusional states in elderly patients
anti-androgenic activity (limitation) ([1]; patients): anti-androgenic activity

Kb [2, 4]: 9.12 µM
SMILES: CNC(=C[N+](=O)[O-])NOCCOCc1ccc(CN(C)C)o1 [Example 2, N-[2-[[5-[(dimethylamino)methyl]-2-furanyl]methoxy]ethoxy]-N'-methyl-2-nitro-1,1-ethenediamine, ethanedioate]

Kb [2, 4]: 1.26 µM
SMILES: CNC(=S)NOCCOCc1ccc(CN(C)C)o1 [Example 4, N-[2-[[5-[(dimethylamino)methyl]-2-furanyl]methoxy]ethoxy]-N'-methyl-thiourea, 1/2 hydrate]

Kb ([2]; printed in pA2 column, footnote *: KB value, result of only one experiment, guinea pig right atrium vs histamine, read-out: KB value): 0.108 µM
SMILES: CNC(=C[N+](=O)[O-])NOCCCc1csc(NC(=N)N)n1 [Example 5, [4-[3-[[[1-(methylamino)-2-nitroethenyl]amino]oxy]propyl]-2-thiazolyl]guanidine]
% Inhibition (of acid output) [3]: 72%
